According to the METLIN SMRT retention time set (Domingo-Almenara et al. 2019):

Assay: gradient 5% acetonitrile 3 min, to 50% in 2 min, to 85% in 15 min, held 3 min, 100 µL/min
Settings: column: Zorbax Extend-C18 2.1 x 50 mm; eluents: water / acetonitrile, 0.1% formic acid
Procedure, shortened: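 Pure standards were analyzed in mixtures of ~100 molecules using HPLC coupled to a quadrupole time-of-flight mass spectrometer, in both positive and negative ionization mode. Separation used a Zorbax Extend-C18 column (2.1 × 50 mm, 1.8 μm) at 100 μL/min, with water and acetonitrile each containing 0.1% formic acid. Dead and dwell volumes were 40 μL and 900 μL, and data were collected over 3 months. Retention time was read from computationally picked adduct peaks, each inspected manually.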

SMILES | RP-LC retention time [s]
CS(=O)(=O)N1C[C@@H](COc2cccnc2)[C@H](c2ccccn2)C1 | 554
O=C(Nc1ccc(Br)cc1F)c1ccc(N2CCOCC2)nn1 | 899
Cc1ccc(-n2cc3c(N4CCCC(C(=O)NCc5ccc(C(F)(F)F)cc5)C4)ncnc3n2)cc1 (stereo not drawn) | 786
O=C(NCC#CCN1CCc2ccccc2C1)c1ccc(Cl)s1 | 587
O=C(Nc1ccc(Nc2ccccc2)cc1)Nc1ccccc1Cl | 1130
Cc1cccc(-c2noc(-c3ccc(N4CCN(Cc5ccc6c(c5)OCO6)CC4)nc3)n2)c1 | 848
CC(=O)NCc1ccc(-c2noc(-c3cc(Cl)ccc3F)n2)s1 | 888
O=S(=O)(Nc1ccc(Cn2cncn2)cc1)c1ccc(Cl)cc1 | 744
CCOCC(=O)Nc1ccc(CC(=O)NCC(F)(F)F)cc1 | 644
COc1ccccc1NS(=O)(=O)c1ccc2c(c1)CCCC(=O)N2 | 716
COc1ccccc1CNC(=O)CN1CCN(Cc2ccccc2F)C1=O | 715
CCOc1ccc(-c2nn3c(Cc4ccc(OC)cc4)nnc3s2)cc1 | 1070
CCN(Cc1ccccc1)c1ccc(-c2noc(CN3CCN(C)CC3)n2)cn1 | 670
COc1ccc(C2C(C(=O)Nc3ccc4c(c3)OCO4)c3cc(OC)c(OC)cc3C(=O)N2C)cc1 (stereo not drawn) | 798
CC(C)CNC(=O)c1ccc2c(c1)N(C)C(=O)CS2 | 708
CCN(C(=O)CN1C(=O)NC(c2ccc(Cl)cc2)C2=C1COC2=O)c1ccccc1 (stereo not drawn) | 834
COc1cc(=O)n(-c2ccccc2)nc1C(=O)NC(c1ccccc1)c1ccccc1 | 828
COC(=O)c1ccc(C(=O)NCC2(CO)CC2)cc1 | 611
COc1ccc(Cc2nc3nccc(-c4ccco4)n3n2)cc1 | 855
COc1ccc(CCc2nc3nccc(-c4ccccn4)n3n2)cc1 | 837
O=C(Nc1cccc(C(F)(F)F)c1)N1CCCC(Cn2cnc3cccnc32)C1 (stereo not drawn) | 751
CCn1nc(C)n2cc(S(=O)(=O)NCc3ccco3)cc2c1=O | 779
Fc1cccc(-c2noc(-c3ccc(N4CCN(c5ncccn5)CC4)nc3)n2)c1 | 1230
COc1cccc(NC(=O)Cn2c(C)nc3onc(C)c3c2=O)c1 | 708

SMILES | RP-LC retention time [s]
O=C(c1ccccc1Sc1nccnc1Oc1ccccc1)N1CCOCC1 | 859
O=C(Nc1nnc(SCc2nnc(-c3ccc4c(c3)OCO4)o2)s1)C1CC1 | 750
Nc1ccc(-c2nc3ccc(-c4nc5ccc(N)cc5[nH]4)cc3[nH]2)cc1 | 568
CC(=O)Nc1ccc(NC(=O)C2CC(=O)N(c3n[nH]c4cccc(F)c34)C2)cc1 (stereo not drawn) | 634
Brc1ccc(OCc2nnc3sc(-c4ccncc4)nn23)cc1 | 811
CC1(C)N=C(N)N=C(N)N1c1ccc(CCCCc2ccc(Cl)cc2Cl)cc1 | 878
CC(C)(CO)NCc1ccc(-c2cccc(C(F)(F)F)c2)o1 | 660
COc1cc(-c2ccccc2)nc2ccc(NS(=O)(=O)c3ccc(NC(C)=O)cc3)cc12 | 653
CC(=O)Nc1cc([N+](=O)[O-])c(N(C)S(=O)(=O)c2ccccc2)c2ccccc12 | 781
O=C(Cn1c(=O)c2cc(-c3cccs3)nn2c2ncccc21)NCc1ccc(Cl)cc1 | 885
CCN(Cc1ccccc1)S(=O)(=O)c1c(C)nn(-c2ccc(-c3ccccc3)nn2)c1C | 1220
CCN(CC)CCNC(=O)Cn1nc(-n2cccc2)c2c(C)cc(C)nc21 | 636
CCCCn1cc(S(=O)(=O)Nc2ccc(F)cc2Cl)c2cccnc21 | 862
COc1ccc(S(=O)(=O)N(C(C)=O)c2ccccc2/C=C/c2cc[n+]([O-])cc2)cc1 | 785
O=C1c2ccccc2C(=O)c2oc(-c3ccccc3)nc21 | 1150
CCn1c(C(=O)NCc2ccc(OC)cc2)cc2sc(Cl)cc21 | 1130
COc1ccc(-c2noc(-c3cccnc3N3CCN(c4ccc(OC)cc4)CC3)n2)cc1 | 1070
COCCN1C(=O)CCc2cc(NC(=O)COc3cccc(C)c3)ccc21 | 799
CC(C)Cn1c(=O)c2ccccc2n(Cc2nc(-c3ccc(C(F)(F)F)cc3)no2)c1=O | 1300
CSc1cccc(NC(=O)NCC(c2cccnc2)c2c[nH]c3ccccc23)c1 (stereo not drawn) | 677
CCCCOc1ccc(-c2nc(C3CC(=O)N(c4ccc(CC)cc4)C3)no2)cc1 (stereo not drawn) | 1390
COc1ccc(-c2noc(-c3ccc(N4CCN(c5ncccn5)CC4)nn3)n2)cc1 | 923
O=C(Nc1ccccc1F)c1cccn1Cc1noc(-c2ccccc2)n1 | 1010
COc1ccc(-c2csc3c(=O)n(Cc4cccc(F)c4)cnc23)cc1 | 1050

More lines, now with the values ahead:

RP-LC retention time [s] | SMILES
765 | NC(=O)C1CCN(c2oc(-c3ccccc3Cl)nc2S(=O)(=O)c2ccccc2)CC1
626 | COc1ccc(NC(=O)N2CCC(Cc3nc4cccnc4n3C(C)C)C2)c(OC)c1 (stereo not drawn)
671 | O=c1c2cc(-c3ccccc3)nn2ccn1Cc1noc(CN2CCCCCC2)n1
632 | Cc1ccc(S(=O)(=O)N2CCN(CCc3cn(C)c4ncccc34)CC2)cc1
661 | CNC(=O)N1CCc2ccc(C(=O)NC(C)(C)C)cc21
787 | CCCNC(=O)NC1CCN(C2=NS(=O)(=O)C(c3ccc(CC)cc3)=C2C)CC1
957 | CCOC(=O)c1cc(S(=O)(=O)N2CCCC2C(=O)Nc2ccc(C)cc2C)cn1C (stereo not drawn)
721 | CC(=O)N1CCC2(CC1)OC(=O)C(C)=C2C(=O)NCc1ccccc1Br
765 | CC(C)n1cnc(S(=O)(=O)N2CCC(C(=O)N3CCc4ccccc4C3)CC2)c1
748 | Cc1ccc(-c2ncn(C3CCCCC3)c2-c2ccc(C(=O)N3CCN(c4ncccn4)CC3)o2)cc1
972 | CC(C)(Oc1ccc(Cl)cc1)C(=O)NC1CCCCC1N1C(=O)CSC1=O (stereo not drawn)
674 | Cc1ccc(Nc2c(C(=O)N3CCC(C)CC3)cnc3nc(C)ccc23)c(C)c1
726 | Cc1cc(C(=O)NCCCN2CCN(c3cc(Cl)ccc3C)CC2)n(-c2ccccc2)n1
812 | Cc1nc(C2CN(S(=O)(=O)c3ccccc3F)CC23CCOCC3)no1 (stereo not drawn)
954 | CC1(C)CC(=O)c2cn(-c3ccc(F)cc3)c(=O)c(C(=O)N3CCc4ccccc43)c2C1
660 | Cc1cc(C(=O)NC2CCc3nnc(C4CC4)n3CC2)c(C)n1Cc1ccco1 (stereo not drawn)
670 | Cc1cc(=O)n(CC(=O)Nc2cc(F)cc(F)c2)c(N2CCCC2)n1
581 | O=C1CCCN1CCCN(CC(=O)N1CCNCC1)C(=O)c1ccc(F)c(Cl)c1
1020 | CC(C)(C)c1ccc(O)c(NC(=O)c2cn(-c3ccc(S(=O)(=O)N4CCCC4)cc3)cn2)c1
659 | O=C(CN(C(=O)c1ccc(F)c(Cl)c1)C1CCCCC1)N1CCNCC1

RP-LC retention time [s] | SMILES
624 | COc1ccc(CCNC(=O)CSc2cc(N3CCC(C(=O)NC4CC4)CC3)ncn2)cc1OC
898 | Cc1[nH]c(-c2ccccc2)cc1C(=O)NC1CCCCC1
884 | CCN1C(=O)c2cc(C(=O)NCc3ccccc3C)nn2CC1(C)C(=O)NC1CCCC1 (stereo not drawn)
971 | CN(C(=O)c1cn(-c2ccc(-c3nc(C4CC4)no3)cn2)cn1)C1CCCCC1
750 | CC(=O)N1CCc2cc(N3CC(C(=O)Nc4ccc(Cl)cc4)CC3=O)ccc21 (stereo not drawn)
780 | O=C(c1ccccc1)N1CCC(n2nc(-c3ccsc3)ccc2=O)CC1
764 | CC1CCN(c2cc(-c3noc(C(=O)N4CCCC4)n3)ccn2)CC1
639 | Cc1cccc(-c2nc3ccccn3c2NC(=O)NC2CCCC2)c1
721 | CCNC(=O)N1CC(n2cc(C(=O)NCCC3=CCCCC3)nn2)C1
885 | COC(=O)c1ccc2c(=O)n(-c3ccc4c(c3)OCO4)c(N3CCCC3)nc2c1
663 | O=C(c1ccsc1)N1CCC(c2nncn2Cc2ccccc2)CC1
681 | COc1ccc(S(=O)(=O)N2CCCC(C(=O)N3CCOCC3)C2)cc1OC (stereo not drawn)
706 | CCOC(=O)c1c(S(=O)(=O)N2CCC(C(=O)N3CCCC3)CC2)c(C)n(C)c1C
881 | O=C(CN1CCN(Cc2ccc(F)cc2Cl)C1=O)N1CCN(c2ccccc2)CC1
625 | O=C(CCCn1c(=O)c2cccn2c2ccccc21)N1CCN(c2ccccn2)CC1
692 | CC(C)C(=O)N1CCC(Cc2noc(C3CC3)n2)C1 (stereo not drawn)
1090 | O=C(CN1C(=O)C(C(=O)N2CCCCC2)Sc2ccccc21)NC1CCCCCC1 (stereo not drawn)
752 | CCCCN(CC)C(=O)C1CCCN(c2nccc(C)n2)C1 (stereo not drawn)
812 | O=C(C1CC1)N1CCc2sc(S(=O)(=O)NCc3ccc4c(c3)OCO4)cc2C1
886 | CCc1noc(NC(C)=O)c1-c1ccc(C)c(S(=O)(=O)NCc2ccc(C)cc2)c1
